Values of other authors in patent US8946410B2, “Automated radiosynthesis” (GE Healthcare Limited, priority 2009, dated 2015).
pKi: −log10 of the molar value.

Target: GABAA receptor
Details: GABAA receptor affinity, related art

- pKi: ~9.30
Structure (SMILES): CCOC(=O)c1ncn2c1CN(C)C(=O)c1cc([18F])ccc1-2 [[^18F]FMZ, [^18F]Flumazenil]
